According to patent publication US11149033B2, “Heteroaryl compound, enantiomer, diastereomer or pharmaceutically acceptable salt thereof, and antiviral composition containing same as active ingredient” (priority 2016, dated 2021):

Assays:
[1] = in vitro
[2] = CC50, third EC50/CC50 column pair (c7), beside the EC50 of c6

Row | SMILES | melting point [°C] | also measured
1 | Clc1cccc(Cl)c1/C=C/c1nnc(Cc2ccc(Br)cc2)o1 [Compound 168, 2-(4-bromobenzyl)-5-(2,6-dichlorostyryl)-1,3,4-oxadiazole] | 139.3 | CC50 ([1]; CC50, beside the EC50 of c2): > 50 µM; CC50 ([1]; CC50, beside the EC50 of c4): > 50 µM; CC50 [1, 2]: > 50 µM
2 | Fc1ccc(/C=C/c2nnc(Cc3cccc(Br)c3)o2)c(F)c1 [Compound 189, 2-(3-bromobenzyl)-5-(2,4-difluorostyryl)-1,3,4-oxadiazole] | 87.7 | CC50 ([1]; CC50, beside the EC50 of c2): > 50 µM; CC50 ([1]; CC50, beside the EC50 of c4): > 50 µM; CC50 [1, 2]: > 50 µM
3 | Brc1ccc(Cc2nnc(-c3cc4ccccc4o3)o2)cc1 [Compound 156, 2-(benzofuran-2-yl)-5-(4-bromobenzyl)-1,3,4-oxadiazole] | 145.7 | CC50 ([1]; CC50, beside the EC50 of c2): > 50 µM; CC50 ([1]; CC50, beside the EC50 of c4): > 50 µM; CC50 [1, 2]: > 50 µM
4 | Cn1cc(Cc2nnc(/C=C/c3ccc(F)cc3Cl)o2)c2ccccc21 [Compound 213, 2-(2-chloro-4-fluorostyryl)-5-((1-methyl-1H-indol-3-yl)methyl)-1,3,4-oxadiazole] | 148.1 | –
5 | Cc1cc(F)cc(Cc2nnc(/C=C/c3ccc(F)cc3Cl)o2)c1 [Compound 255, 2-(2-chloro-4-fluorostyryl)-5-(3-fluoro-5-methylbenzyl)-1,3,4-oxadiazole] | 117 | –
6 | Cc1ccc(Cc2nnc(/C=C/c3ccc(F)cc3Cl)o2)cc1Cl [Compound 300, 2-(2-chloro-4-fluorostyryl)-5-(3-chloro-4-methylbenzyl)-1,3,4-oxadiazole] | 161.4 | –
7 | Brc1ccc(Cc2nnc(/C=C/c3ccccc3Br)o2)cc1 [Compound 128, (E)-2-(4-bromobenzyl)-5-(2-bromostyryl)-1,3,4-oxadiazole] | 156.1 | CC50 ([1]; CC50, beside the EC50 of c2): > 50 µM; CC50 ([1]; CC50, beside the EC50 of c4): > 50 µM; CC50 [1, 2]: > 50 µM
8 | FC(F)(F)c1ccccc1/C=C/c1nnc(Cc2cccc(Br)c2)o1 [Compound 281, 2-(3-bromobenzyl)-5-(2-(trifluoromethyl)styryl)-1,3,4-oxadiazole] | 107.2 | –
9 | Fc1cc(Br)cc(Cc2nnc(/C=C/c3ccc(F)cc3Cl)o2)c1 [Compound 292, 2-(3-bromo-5-fluorobenzyl)-5-(2-chloro-4-fluorostyryl)-1,3,4-oxadiazole] | 143 | –
10 | CN(C)c1cccc(Cc2nnc(/C=C/c3ccc(F)cc3Cl)o2)c1 [Compound 217, 3-((5-(2-chloro-4-fluorostyryl)-1,3,4-oxadiazol-2-yl)methyl)-N,N-dimethylaniline] | 134.2 | –
11 | Cc1ccc2cccc(Cc3nnc(/C=C/c4ccc(F)cc4Cl)o3)c2n1 [Compound 295, 2-(2-chloro-4-fluorostyryl)-5-((2-methylquinolin-8-yl)methyl)-1,3,4-oxadiazole] | 191.2 | –
12 | Cc1ccc(Cc2nnc(/C=C/c3ccc(F)cc3N(C)CCc3ccccc3)o2)cc1Br [Compound 305, 2-(2-(5-(3-bromo-4-methylbenzyl)-1,3,4-oxadiazol-2-yl)vinyl)-5-fluoro-N-methyl-N-phenethylaniline] | 80.7 | –
13 | Cc1c(Br)cccc1Cc1nnc(/C=C/c2ccc(F)cc2Cl)o1 [Compound 294, 2-(3-bromo-2-methylbenzyl)-5-(2-chloro-4-fluorostyryl)-1,3,4-oxadiazole] | 158.3 | –
14 | Cc1ccc(Br)cc1Cc1nnc(/C=C/c2ccc(F)cc2Cl)o1 [Compound 282, 2-(5-bromo-2-methylbenzyl)-5-(2-chloro-4-fluorostyryl)-1,3,4-oxadiazole] | 169.3 | –
15 | FC(F)(F)Oc1ccccc1/C=C/c1nnc(Cc2cccc(Br)c2)o1 [Compound 256, 2-(3-bromobenzyl)-5-(2-(trifluoromethoxy)styryl)-1,3,4-oxadiazole] | 103.6 | –
16 | Clc1ncccc1/C=C/c1nnc(Cc2cccc(Br)c2)o1 [Compound 225, 2-(3-bromobenzyl)-5-(2-(2-chloropyridin-3-yl)vinyl)-1,3,4-oxadiazole] | 162.5 | –
17 | O=C(Nc1cccc(Br)c1)c1nnc(/C=C/c2ccc(F)cc2Cl)o1 [Compound 253, N-(3-bromophenyl)-5-(2-chloro-4-fluorostyryl)-1,3,4-oxadiazole-2-carboxamide] | 254.2 | –
18 | Cc1cccc(Cc2nnc(/C=C/c3ccc(F)cc3Cl)o2)c1C [Compound 221, 2-(2-chloro-4-fluorostyryl)-5-(2,3-dimethylbenzyl)-1,3,4-oxadiazole] | 139.3 | –
19 | Fc1ccc(/C=C/c2nnc(Cc3cc(Br)ccc3F)o2)c(Cl)c1 [Compound 258, 2-(5-bromo-2-fluorobenzyl)-5-(2-chloro-4-fluorostyryl)-1,3,4-oxadiazole] | 156.6 | –
20 | Fc1ccc(/C=C/c2nnc(CCc3cccc(Br)c3)o2)c(Cl)c1 [Compound 223, 2-(3-bromophenethyl)-5-(2-chloro-4-fluorostyryl)-1,3,4-oxadiazole] | 108.7 | –
21 | Fc1ccc(/C=C/c2nnc(Cc3cccc(C4CC4)c3)o2)c(Cl)c1 [Compound 267, 2-(2-chloro-4-fluorostyryl)-5-(3-cyclopropylbenzyl)-1,3,4-oxadiazole] | 110.2 | –
22 | COc1ccc2cccc(Cc3nnc(/C=C/c4ccc(F)cc4Cl)o3)c2c1 [Compound 298, 2-(2-chloro-4-fluorostyryl)-5-((7-methoxynaphthalen-1-yl)methyl)-1,3,4-oxadiazole] | 179.9 | –

Row | SMILES | melting point [°C] | also measured
23 | Fc1ccc(/C=C/c2nnc(Cc3cccc4cccnc34)o2)c(Cl)c1 [Compound 236, 2-(2-chloro-4-fluorostyryl)-5-(quinolin-8-ylmethyl)-1,3,4-oxadiazole] | 171.9 | –
24 | Fc1ccc(/C=C/c2nnc(Cc3cccc(C(F)F)c3)o2)c(Cl)c1 [Compound 299, 2-(2-chloro-4-fluorostyryl)-5-(3-(difluoromethyl)benzyl)-1,3,4-oxadiazole] | 108.1 | –
25 | Fc1cc(F)c(/C=C/c2nnc(Cc3cccc(Br)c3)o2)c(Cl)c1 [Compound 245, 2-(3-bromobenzyl)-5-(2-chloro-4,6-difluorostyryl)-1,3,4-oxadiazole] | 112 | –
26 | Fc1ccc(/C=C/c2nnc(Cc3cccc(Cl)c3F)o2)c(Cl)c1 [Compound 291, 2-(3-chloro-2-fluorobenzyl)-5-(2-chloro-4-fluorostyryl)-1,3,4-oxadiazole] | 118.1 | –
27 | Fc1ccc(/C=C/c2nnc(Cc3cccc(Br)c3F)o2)c(Cl)c1 [Compound 293, 2-(3-bromo-2-fluorobenzyl)-5-(2-chloro-4-fluorostyryl)-1,3,4-oxadiazole] | 135.8 | –
28 | Fc1ccc(/C=C/c2nnc(Cc3ccccc3Br)o2)c(Cl)c1 [Compound 222, 2-(2-bromobenzyl)-5-(2-chloro-4-fluorostyryl)-1,3,4-oxadiazole] | 155.2 | –
29 | Fc1cccc(/C=C/c2nnc(Cc3cccc(Br)c3)o2)c1F [Compound 280, 2-(3-bromobenzyl)-5-(2,3-difluorostyryl)-1,3,4-oxadiazole] | 97.4 | –
30 | Fc1ccc(/C=C/c2nnc(Cc3nccc4ccccc34)o2)c(Cl)c1 [Compound 237, 2-(2-chloro-4-fluorostyryl)-5-(isoquinolin-1-ylmethyl)-1,3,4-oxadiazole] | 171.4 | –
31 | Fc1cc(F)c(/C=C/c2nnc(Cc3cccc(Br)c3)o2)c(Br)c1 [Compound 290, 2-(2-bromo-4,6-difluorostyryl)-5-(3-bromobenzyl)-1,3,4-oxadiazole] | 118.2 | –
32 | Fc1ccc(/C=C/c2nnc(Cc3ccc(F)c(Br)c3)o2)c(F)c1 [Compound 263, 2-(3-bromo-4-fluorobenzyl)-5-(2,4-difluorostyryl)-1,3,4-oxadiazole] | 115 | –
33 | Fc1ccc(/C=C/c2nnc(Cc3cncc4ccccc34)o2)c(Cl)c1 [Compound 238, 2-(2-chloro-4-fluorostyryl)-5-(isoquinolin-4-ylmethyl)-1,3,4-oxadiazole] | 171.3 | –
34 | Cc1ccc(Cc2nnc(/C=C/c3ccc(F)cc3F)o2)cc1Br [Compound 262, 2-(3-bromo-4-methylbenzyl)-5-(2,4-difluorostyryl)-1,3,4-oxadiazole] | 132 | –
35 | c1ccc(-c2cccc(CSc3nnc(Cn4cc(-c5ccccc5)cn4)o3)c2)cc1 | 74.1 | –
36 | Fc1ccc(/C=C/c2nnc(Cc3cccc(Br)c3)o2)c(Br)c1 [Compound 215, 2-(2-bromo-4-fluorostyryl)-5-(3-bromobenzyl)-1,3,4-oxadiazole] | 129.5 | –
37 | Cc1cccc(Cc2nnc(/C=C/c3ccc(F)cc3Cl)o2)c1 [Compound 211, 2-(2-chloro-4-fluorostyryl)-5-(3-methylbenzyl)-1,3,4-oxadiazole] | 100.5 | –
38 | O=C(O)c1ccccc1/C=C/c1nnc(Cc2cccc(Br)c2)o1 [Compound 243, 2-(2-(5-(3-bromobenzyl)-1,3,4-oxadiazol-2-yl)vinyl)benzoic acid] | 167.7 | –
39 | Fc1ccc(/C=C/c2nnc(Cc3cc(Br)ccn3)o2)c(Cl)c1 [Compound 283, 2-((4-bromopyridin-2-yl)methyl)-5-(2-chloro-4-fluorostyryl)-1,3,4-oxadiazole] | 149.5 | –
40 | COC(=O)c1ccccc1/C=C/c1nnc(Cc2cccc(Br)c2)o1 [Compound 242, methyl-2-(2-(5-(3-bromobenzyl)-1,3,4-oxadiazol-2-yl)vinyl)benzoate] | 131.1 | –
41 | Fc1ccc(/C=C/c2nnc(Cc3ccc(F)c(Br)c3)o2)c(Br)c1 [Compound 266, 2-(3-bromo-4-fluorobenzyl)-5-(2-bromo-4-fluorostyryl)-1,3,4-oxadiazole] | 124.9 | –
42 | Fc1ccc(/C=C/c2nnc(Cc3cccc(Br)c3)o2)c(C(F)(F)F)c1 [Compound 264, 2-(3-bromobenzyl)-5-(4-fluoro-2-(trifluoromethyl)styryl)-1,3,4-oxadiazole] | 137.3 | –
43 | Cc1ccc(Cc2nnc(/C=C/c3ccc(F)cc3Br)o2)cc1Br [Compound 265, 2-(2-bromo-4-fluorostyryl)-5-(3-bromo-4-methylbenzyl)-1,3,4-oxadiazole] | 152.6 | –
